Measured values reported in US10583109B2, “Use of silver(I) complexes as anticancer agents” (University of Johannesburg, priority 2012, dated 2020).

Assays:
[1] = tested on: SNO-oesophageal cancer cells; assay: Morphological features of SNO-oesophageal cancer cells by inverse light microscopy; assay type: cell-based; details: 24 hours of treatment
Description: Morphological studies were done by means of an Axiovert 25 inverted microscope (Carl Zeiss, Göttingen, Germany) with Axio Vision 3.1 software (Carl Zeiss, Göttingen, Germany) using an magnification of 100×.
After 24 hours of treatment with complexes (1)-(5) including their ligands the cells were examined under said Axiovert 25 inverted light microscope. This was done to determine how the complexes of the present invention influence morphology which was compared to 100 μM Cisplatin (apoptotic control) and 15% H2O2 (necrotic control).
Light microscope images indicating the morphology of the differentially treated SNO-oesophageal cancer cells is shown in FIG. 8. An untreated control (a) including 100 μM Cisplatin (b), an apoptotic control and 15% H2O2 (c), and a necrotic control was included. Cells were treated with 10 μM silver(I) thiocyanate phosphine complexes (1)-(5) as well as their separate ligands (Ligand-1 to Ligand-5, respectively) (FIGS. 8d to 8m). Black arrows represent signs of apoptosis, while the white arrows represent signs of necrosis.
An Axiovert 25 inverted microscope was used to examine if these complexes affect the morphological features of the malignant cells in any other way. This was done at a magnification of 100× with the use of Axio Version 3.1 software (Carl Zeiss, Gottingen, Germany).
Morphological studies where done after 24 hours of treatment to determine how these compounds influence/change specific features of the malignant SNO-oesophageal cancer cells, compared to the untreated (UC) and 1% DMSO vehicle control. The treated cancer cells including their controls were examined under an Axiovert 25 inverted light microscope (Carl Zeiss, Göttingen, Germany) with Axio Vision 3.1 software (Carl Zeiss, Göttingen, Germany) using a 100× magnification. In FIG. 19, the morphology of the different controls including Ligand-10 and complexes (10)-(12) are represented. To predict the targeting mechanisms of these compounds, the treated cells were compared to 100 μM Cisplatin (apoptotic control) and 25% H2O2 (necrotic control).

[2] = tested on: SNO-oesophageal cancer cells; assay type: cell-based; details: for cancer cell death compared to the vehicle control: 14 μM, 24 hour treatment
[3] = tested on: MCF-7 breast cancer cells; assay: AlamarBlue viability and proliferation assay of MCF-7 breast cancer cells; assay type: cell-based, human
Description: For the biological studies, MCF-7 breast cancer cells were obtained from an immortal cell line from human adenocarcinoma from (primary site) mammary gland and (metastatic site) pleural effusion (ATCC no HTB-22).
MCF-7 breast cancer cells were cultured in Dulbecco's modified Eagle's medium (DMEM), 13.53 g/L with sodium bicarbonate (NaHCO3), 3.7 g/L supplemented with 10% foetal bovine serum (FBS), 1% gentamycin and 5% Penicillin/Streptomycin/Fungizone in 75 cm^3 culture flasks. Cells were subcultured twice a week and incubated at 37° C. with 5% CO2 in a humidified atmosphere. Hanks balanced salt solution (HBSS), supplemented DMEM media and trypsin versene were warmed to 37° C. prior to subculturing. Cells were washed twice with 10 ml Hanks balanced salt solution for 1 minute and were then incubated for 4.5 to 5 minutes at 37° C. with 6 ml trypsin versene to remove the cells from the culture flask. To inactivate the trypsin versene, 10 ml supplemented DMEM was added and the cells were pelleted by centrifugation at 1028 g for 4 minutes with an Allegra™ 25R Centrifuge. The pellet was resuspended in 1 ml supplemented DMEM and 500 μl of the cell suspension was then added to 25 ml of supplemented DMEM media in 75 cm^3 culture flasks.
MCF-7 breast cancer cells, in terms of a first study, and SNO-oesophageal cancer cells, in terms of a second study, were treated with 10 μM silverthiocyanide complexes (1)-(5), as well as their ligands (Ligand-1 to Ligand-5) over a 24 hour incubation period. […] An untreated negative control (UT) was exposed to similar conditions as the treated cells and monitored during the experimental study.
The AlamarBlue® viability and proliferation assay of complexes (1)-(5) for the MCF-7 breast cancer cells is depicted in FIGS. 1A to 1F. The percentage viability of control samples determined by the AlamarBlue® viability and proliferation assay is depicted in FIG. 1A. […] A significant difference (P<0.001) between the control and the treated samples was calculated using Student's T-test and is indicated by an asterisk.
(§1) This Figure depicts the percentage viability of MCF-7 cells treated with various concentrations of complex (1) as determined by the AlamarBlue® viability and proliferation assay. […] The asterisk indicates a significant difference between a sample and the control (P<0.001) as calculated with Student's T-test.
as §1, with “FIG. 1C to FIG. 1F represent the dose dependant studies of complexes (2) to (5), respectively. In each of these Figures,” for “This Figure depicts”, “complexes (2) to (5) was” for “complex (1) as”, “T-test. […]” for “T-test.”

[4] = tested on: SNO-oesophageal cancer cells; assay: Flow cytometric analysis (Annexin-V FITC / PI) of apoptosis and/or necrosis in SNO-oesophageal cancer cells; assay type: cell-based; details: 14 μM, 24 hours
Description: To determine if either apoptosis or necrosis occurred, the cells were double labelled with Annexin-V FITC and Propidium Iodide (PI) by means of an Annexin-V FITC assay kit (Serotec, UK). This was done according to manufacturer's instructions with a few adjustments. Briefly, the cells (±3×10^5 cells/ml) were washed twice with cold phosphate buffered saline (PBS), followed by the addition of 100 μl 1× binding buffer. Two and a half microliters of Annexin-V along with 5 μl PI were added in the dark and was incubated for 15 minutes at room temperature. After incubation, 400 μl 1× binding buffer was added and cells were analysed using the FACSAria flow cytometer (BD Biosciences, San Jose, Calif.) with FACSDiva software (BD Biosciences, San Jose, Calif.) 492 nm (excitation) and 520 nm for Annexin and 488 nm and 575 nm(emission) for PI.
The cell membrane contains a negatively charged phosphatidylserine (PS) on the inner leaflet and is exposed when apoptosis or necrosis takes place. Annexin-V interacts with PS in both apoptotic and necrotic cells, making these cellular deaths undistinguishable. This is overcome by using PI as an alternative label that interacts with the exposed DNA of necrotic cells only, leading to the fluorescent detection of both these labels. Pie charts (FIG. 9) were constructed for all the controls (including Ligand-1 to Ligand-5) and the different silver(I) thiocyanate phosphine complexes (1)-(5).
Pie charts representing the four different flow cytometric quadrants of Annexin-V and […] to determine the mode of cellular death induced in differentially treated SNO-oesophageal cells are represented in FIG. 9. An untreated control (A), apoptotic control (B) and necrotic control (C) were included. Cells were treated with 10 μM of the different ligands including the silver(I) thiocyanate phosphine complexes (1)-(5). An average percentage was calculated for all segments where the SEM is n=3 for all treatments except for 15% H2O2 (n=2). The four segments represent the following: White segment—negative for FITC and PI, Light grey segment—positive for FITC but negative for PI, Dark grey segment—positive for PI but negative for FITC and Black segment—positive for both FITC and PI. Cells undergoing early apoptosis are represented by the light grey segment, while those of late apoptosis and primary necrosis are represented by the black segment. Necrotic cells are represented by the dark grey segment and intact viable cells are shown by the white segment.
Approximately 3×10^5 cells were washed with ice cold phosphate buffered saline solution (PBS). The cells were double labeled using an Annexin-V FITC assay kit adjusting the protocol. A 1× binding buffer (100 μl) was used to fix the cells. Annexin-V (2.5 μl) and Propidium Iodide (PI—5 μl) labels were added respectively followed by a 15 minute incubation, at room temperature, in the dark. After the incubation period, 400 μl of the 1× binding buffer was added, where counting of the cellular events was made using an FACSAria flow cytometer (BD Biosciences, San Jose, Calif.) with FACSDiva software (BD Biosciences, San Jose, Calif.). This technique in particular identifies whether predicted apoptotic cell death (or necrosis) was induced by these complexes.
As observed in FIG. 14, dot blots represent the mode of cellular death induced in the SNO-oesophageal cancer cells after 24 hours of treatment. FIG. 14(a): 0.1% DMSO, FIG. 14(b): 100 μM CDDP, FIG. 14(c): 25% H2O2, FIG. 14(d-i): complexes (6)-(9). An average percentage was calculated for all quadrants where the SEM is n=2 for all treatments. The four quadrants represent the following: Quadrant Q3 is negative for FITC and PI, Quadrant Q4 is positive for FITC but negative for PI, Quadrant Q1 is positive for PI but negative for FITC and Quadrant Q2 is positive for both FITC and PI. Cells undergoing early apoptosis are more likely to be found in Quadrant Q4 while those of late apoptosis and primary necrosis will be found in Quadrant Q2. […]

| Molecule | necrotic cell death (morphology) ([1]; 14 μM) | signs of apoptosis / cell death (morphology) ([1]; 14 μM) | cancer cell death compared to the vehicle control [2] | also measured |
| --- | --- | --- | --- | --- |
| AgCN(PPh3)3 [complex (12)] | Minimal necrotic cell death | multiple signs of apoptosis | significantly induced cancer cell death | – |
| Cc1ccc([P+](c2ccc(C)cc2)(c2ccc(C)cc2)[Ag]2([P+](c3ccc(C)cc3)(c3ccc(C)cc3)c3ccc(C)cc3)[N+]#C[S][Ag]([P+](c3ccc(C)cc3)(c3ccc(C)cc3)c3ccc(C)cc3)([P+](c3ccc(C)cc3)(c3ccc(C)cc3)c3ccc(C)cc3)[N+]#C[S]2)cc1 [complex (2), [AgSCN{P(4-MeC6H4)3}2]2] | – | – | – | necrotic cell death (morphology) ([1]; 10 μM): Necrotic cell death was also observed; decrease in viability and proliferation ([3]; 10 μM, 24 hours after treatment, compared to the untreated control): ~70% |
| c1ccc(P(c2ccccc2)c2ccccc2)cc1 [Ligand-10, PPh3, reference compound] | – | minimal cell death similar to apoptosis | – | viability ([2]; 14 µM): 99.03%; influence on cellular viability and PS externalisation, flow cytometry [4]: did not influence |
| Clc1ccc([P+](c2ccc(Cl)cc2)(c2ccc(Cl)cc2)[Ag]2([P+](c3ccc(Cl)cc3)(c3ccc(Cl)cc3)c3ccc(Cl)cc3)[N+]#C[S][Ag]([P+](c3ccc(Cl)cc3)(c3ccc(Cl)cc3)c3ccc(Cl)cc3)([P+](c3ccc(Cl)cc3)(c3ccc(Cl)cc3)c3ccc(Cl)cc3)[N+]#C[S]2)cc1 [complex (4), [AgSCN{P(4-ClC6H4)3}2]2] | – | – | – | cytotoxic activity (ranking) ([3]; MCF-7 cells): strongest |
| [Cl][Ag]([PH](c1ccccc1)(c1ccccc1)c1ccccc1)([PH](c1ccccc1)(c1ccccc1)c1ccccc1)[PH](c1ccccc1)(c1ccccc1)c1ccccc1 [complex (10), AgCl(PPh3)3] | Minimal necrotic cell death | multiple signs of apoptosis | significantly induced cancer cell death | – |
| [Br][Ag]([PH](c1ccccc1)(c1ccccc1)c1ccccc1)([PH](c1ccccc1)(c1ccccc1)c1ccccc1)[PH](c1ccccc1)(c1ccccc1)c1ccccc1 [complex (11), AgBr(PPh3)3] | Minimal necrotic cell death | multiple signs of apoptosis | significantly induced cancer cell death | apoptotic cells (early and late stages), flow cytometry [4]: 47.23%; necrotic cells positive for PI, flow cytometry [4]: 14.73% |
